# Test results from ChEMBL document CHEMBL3714749, “Quinoxaline derivatives as gpr6 modulators” (2014).
# Test system: Rattus norvegicus
# Test: Reversal of haloperidol-induced catalepsy in Sprague-Dawley rat at 10 mg/kg, sc after 120 mins relative to control
# Assay type: functional
# Conditions: 2 h
row,SMILES,inhibition in vivo at 10 mg/kg
1,N#Cc1ccc2nc(NC3CC3)c(N3CCC(Cc4ccc(F)cc4F)CC3)nc2c1,25.1%

# Target: G-protein coupled receptor 6 (Homo sapiens, UniProt P46095)
# Test: Activity at GPR6 (unknown origin) expressed in CHOK1 cells assessed as inhibition of constitutive cAMP activity incubated for 45 mins by HTRF based cAMP detection assay
# Assay type: functional, cell-based, CHO-K1
# Conditions: not given
# G-protein coupled receptor 6, sequence (P46095 whole entry): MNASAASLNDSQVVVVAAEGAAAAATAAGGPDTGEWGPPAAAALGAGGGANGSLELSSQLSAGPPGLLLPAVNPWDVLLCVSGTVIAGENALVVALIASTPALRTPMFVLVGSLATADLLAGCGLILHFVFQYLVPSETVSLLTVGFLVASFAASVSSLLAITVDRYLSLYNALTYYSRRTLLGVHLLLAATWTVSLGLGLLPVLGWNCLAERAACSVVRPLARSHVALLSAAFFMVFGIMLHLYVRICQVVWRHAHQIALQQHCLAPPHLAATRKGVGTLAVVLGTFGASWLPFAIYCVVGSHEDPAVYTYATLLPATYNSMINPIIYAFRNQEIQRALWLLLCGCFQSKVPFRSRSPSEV
row,IC50,SMILES
1,960 nM,N#Cc1ccc2nc(NCCF)c(N3CCN(C(=O)c4ccc(Cl)cc4)CC3)nc2c1
2,11000 nM,O=C(c1cccc(Cl)c1)C1CCN(c2nc3cnccc3nc2NC2CC2)CC1
3,29 nM,Fc1ccc(Cl)cc1CN1CCN(c2nc3cnccc3nc2NC2CC2)CC1
4,930 nM,N#Cc1ccc2nc(NC3CC3)c(N3CCC(Cn4cc(Cl)ccc4=O)CC3)nc2c1
5,20400 nM,Fc1cnc(Cl)c(CN2CCN(c3nc4ccccc4nc3NC3CC3)CC2)c1
6,15400 nM,N#Cc1ccc2nc(Nc3ccon3)c(N3CCN(C(=O)c4ccc(Cl)cc4)CC3)nc2c1
7,4740 nM,Cc1ccc(S(=O)(=O)N2CCN(c3nc4cc(C#N)ccc4nc3NC3CC3)CC2)cc1
8,530 nM,CS(=O)(=O)c1ccc(C(=O)N2CCN(c3nc4ccccc4nc3NC3CC3)CC2)cc1
9,6640 nM,O=C(c1cc(Cl)ccc1Cl)N1CCN(c2nc3ccccc3nc2NC2CC2)CC1
10,4810 nM,O=C(c1csc(Cl)c1)C1CCN(c2nc3cnccc3nc2NC2CC2)CC1
11,50 nM,Fc1cc(F)c(CN2CCN(c3nc4cnccc4nc3NC3CC3)CC2)cc1F
12,939 nM,COc1ccc(CN2CCN(c3nc4cnc(C(=O)N(C)C)cc4nc3NC3CC3)CC2)c(F)c1
13,3640 nM,Cc1cccc(CN2CCN(c3nc4ccccc4nc3NC3CC3)CC2)c1C
14,1570 nM,C[C@@H](CO)Nc1nc2ccccc2nc1N1CCN(Cc2cc(Cl)ccc2Cl)CC1
15,4900 nM,O=C(c1c(F)cccc1Cl)C1CCN(c2nc3cnccc3nc2NC2CC2)CC1
16,200 nM,O=C(c1c(F)cc(Cl)cc1F)C1CCN(c2nc3cnccc3nc2NC2CC2)CC1

row,IC50,SMILES
1,146 nM,CSc1ccc(OC2CCN(c3nc4cnccc4nc3NC3CC3)CC2)cc1
2,800 nM,Fc1cc2nc(NC3CC3)c(N3CCN(Cc4cc(Cl)ccc4Cl)CC3)nc2cc1F
3,54 nM,Oc1ccc(OC2CCN(c3nc4ccncc4nc3NC3CC3)CC2)c(F)c1
4,8390 nM,O=C(c1ccc(F)c(F)c1)C1CCN(c2nc3cnccc3nc2NC2CC2)CC1
5,1740 nM,CC(=O)c1ccc(OC2CCN(c3nc4cnccc4nc3NC3CC3)CC2)cc1
6,6750 nM,O=C(c1cccs1)C1CCN(c2nc3cnccc3nc2NC2CC2)CC1
7,1100 nM,Fc1ccc(F)c(OC2CCN(c3nc4cnccc4nc3NC3CC3)CC2)c1
8,17800 nM,Cc1nnc(Nc2nc3ccccc3nc2N2CCN(Cc3cc(Cl)ccc3Cl)CC2)nc1C
9,5620 nM,N#Cc1ccc2nc(NC3CC3)c(N3CCN(S(=O)(=O)c4cccc(Cl)c4)CC3)nc2c1
10,1920 nM,COc1ccccc1C(=O)C1CCN(c2nc3cnccc3nc2NC2CC2)CC1
11,4630 nM,O=S(=O)(c1ccccc1)N1CCN(c2nc3ccccc3nc2Nc2cccnc2)CC1
12,69 nM,N#Cc1ccc(F)c(C(=O)C2CCN(c3nc4cnccc4nc3NC3CC3)CC2)c1
13,5780 nM,Cc1ccccc1C(=O)C1CCN(c2nc3cnccc3nc2NC2CC2)CC1
14,140 nM,Fc1ccc(F)c(CN2CCN(c3nc4ccncc4nc3NC3CC3)CC2)c1
15,1570 nM,CN(C)C(=O)c1cc2nc(NC3CC3)c(N3CCN(C(=O)c4cc(F)ccc4Cl)CC3)nc2cn1

# The remaining lines, values behind:
row,SMILES,IC50
1,Fc1cc(F)c(CN2CCN(c3nc4ccncc4nc3Nc3cccnc3)CC2)cc1F,400 nM
2,CC(C)Nc1nc2cnncc2nc1N1CCC(C(F)c2ccc(F)cc2F)CC1 (configuration not stated),6 nM
3,COc1ccc(C(=O)C2CCN(c3nc4cnncc4nc3NC(C)C)CC2)c(F)c1,54 nM
4,COc1ccc(CC2CCN(c3nc4cnc(C#N)cc4nc3NC(C)C)CC2)c(F)c1,26 nM
5,CC(C)Nc1nc2ccc(C#N)cc2nc1N1CCC(C(F)c2cc(F)ccc2F)CC1 (configuration not stated),98 nM
6,CC(C)Nc1nc2cnccc2nc1N1CCC(Oc2ccc(F)cc2F)CC1,20 nM
7,CC(C)Nc1cc(Cl)cc(C(=O)C2CCN(c3nc4ccc(C#N)cc4nc3NC(C)C)CC2)c1,276 nM
8,CN(C)C(=O)c1cc2nc(NCC(F)F)c(N3CCC(Oc4ccc(F)cc4F)CC3)nc2cn1,65 nM
9,CC(C)Nc1nc2ccncc2nc1N1CCC(C(F)c2ccc(F)cc2F)CC1 (configuration not stated),29 nM
10,Fc1ccc(CC2CCN(c3nc4ccncc4nc3NCC(F)F)CC2)c(F)c1,78 nM
11,Fc1ccc(OC2CCN(c3nc4ccncc4nc3NC3CCC3)CC2)c(F)c1,14 nM
12,N#Cc1ccc2nc(NCCC(F)(F)F)c(N3CCC(Oc4ccc(F)cc4F)CC3)nc2c1,160 nM
13,Fc1ccc(F)c(C(F)C2CCN(c3nc4cnccc4nc3NC3CC3)CC2)c1 (configuration not stated),20 nM
14,N#Cc1cc2nc(NC3CC3)c(N3CCC([C@H](F)c4ccc(F)cc4F)CC3)nc2cn1,11 nM
15,Fc1cc(Cl)ccc1OC1CCN(c2nc3cnncc3nc2NC2CC2)CC1,30 nM
16,CC(C)Nc1nc2cc(C(=O)N(C)C)ncc2nc1N1CCC(C(=O)c2cc(F)cc(F)c2)CC1,16 nM
17,N#Cc1ccc(Cl)c(C(=O)C2CCN(c3nc4cnc(Cl)cc4nc3NC3CC3)CC2)c1,89 nM

row,SMILES,IC50
1,N#Cc1ccc2nc(NC3CC3)c(N3CCC(Oc4ccc(F)cc4F)CC3)nc2c1,90 nM
2,COCCNc1nc2ccc(C#N)cc2nc1N1CCC(C(F)c2ccc(F)cc2F)CC1 (configuration not stated),340 nM
3,N#Cc1nccc2nc(NC3CC3)c(N3CCN(Cc4ccc(F)cc4F)CC3)nc12,66 nM
4,Fc1ccc(Cl)cc1C(F)(F)C1CCN(c2nc3cnccc3nc2NC2CC2)CC1,46 nM
5,Fc1ccc(C(F)C2CCN(c3nc4cnc(Br)cc4nc3NC3CC3)CC2)c(F)c1 (configuration not stated),29 nM
6,N#Cc1ccc2nc(NCC(F)F)c(N3CCC(Cc4ccc(F)cc4F)CC3)nc2c1,71 nM
7,Cc1cc2nc(NC3CC3)c(N3CCC(C(F)c4ccc(F)cc4F)CC3)nc2cn1 (configuration not stated),7 nM
8,COc1cccc(OC2CCN(c3nc4cnncc4nc3NC(C)C)CC2)c1,1000 nM
9,COc1ccc(OC2CCN(c3nc4cnncc4nc3NC3CC3)CC2)c(F)c1,20 nM
10,COc1ccc(OC2CCN(c3nc4ccncc4nc3NC(C)C)CC2)c(F)c1,12 nM
11,Cc1cc2nc(NC3CC3)c(N3CCC([C@H](F)c4cc(F)ccc4F)CC3)nc2cn1,11 nM
12,CC(C)Nc1nc2cc(C(=O)N(C)C)ncc2nc1N1CCN(Cc2ccc(F)cc2F)CC1,40 nM
13,N#Cc1cc2nc(NC3CC3)c(N3CCC(Cc4ccc(F)cc4F)CC3)nc2cn1,15 nM
14,CC(C)Nc1nc2cnncc2nc1N1CCC([C@@H](F)c2ccc(F)cc2F)CC1,14 nM
15,CC[C@H](C)Nc1nc2cnncc2nc1N1CCC(Oc2ccc(OC)cc2F)CC1,21 nM
16,COCCNc1nc2ccncc2nc1N1CCC(Cc2ccc(F)cc2F)CC1,30 nM
17,N#Cc1ccc2nc(NC3CC3)c(N3CCC(Cc4ccc(F)cc4F)CC3)nc2c1,64 nM

# Test system: Rattus norvegicus
# Test: Reversal of haloperidol-induced catalepsy in Sprague-Dawley rat at 10 mg/kg, sc after 30 mins relative to control
# Assay type: functional
# Conditions: 0.5 h
row,SMILES,inhibition in vivo at 10 mg/kg
1,N#Cc1ccc2nc(NC3CC3)c(N3CCC(Cc4ccc(F)cc4F)CC3)nc2c1,36.9%
